The term IC50 denotes the midpoint of a concentration-inhibition curve. A higher IC50 goes with weaker potency.

17 compounds from ChEMBL document CHEMBL1141932 (J Med Chem, 2005) can be followed below.

In assay [1] the test system is HEK293. Description: Inhibition of NF-kB activation in HEK293 cells. The class given is functional, cell-based. The note with it: Homo sapiens.
Assay [2] is filed under the species Oryctolagus cuniculus. Description: Inhibition of caspase-like (CA-L) activity of rabbit 20S proteasome. The class given is functional.
Assay [3] concerns RPMI-8226. The assay can be described thus: Cytotoxic activity against RPMI 8226 cells. The assay is classed as functional, cell-based. The note with it: Homo sapiens.
For assay [4], the species on record is Oryctolagus cuniculus. Description: Inhibition of chymotrypsin-like (CT-L) activity of rabbit 20S proteasome. The class given is functional.
Assay [5] is filed under the species Oryctolagus cuniculus. Description: Inhibition of trypsin-like (T-L) activity of rabbit 20S proteasome. The assay is classed as functional.

Bounds are passed on as bounds.

Turning to `CC[C@@]12OC(=O)[C@]1([C@@H](O)[C@@H]1C=CCCC1)NC(=O)[C@@H]2CCCl`, the IC50 is 3600 nM in assay [1]; more than 20000 nM in assay [2]; 1900 nM in assay [3]; 2100 nM in assay [4]; 3300 nM in assay [5].

For `C[C@@]12OC(=O)[C@]1([C@@H](O)[C@@H]1C=CCCC1)NC(=O)[C@@H]2CCN=[N+]=[N-]`, the IC50 was determined as 1000 nM in assay [1]; 560 nM in assay [2]; 5500 nM in assay [3]; 7.7 nM in assay [4]; 210 nM in assay [5].

For the compound `CCC[C@H]1C(=O)N[C@@]2([C@@H](O)[C@@H]3C=CCCC3)C(=O)O[C@@]12C`, the IC50 in assay [1] amounted to 1900 nM; in assay [2], 1200 nM; in assay [3], 6300 nM; in assay [4], 24 nM; in assay [5], 1100 nM.

`C[C@@]12OC(=O)[C@]1([C@@H](O)C1CCCCC1)NC(=O)[C@@H]2CCCl`: the IC50 in assay [1] was determined as 71 nM; in assay [2] it was 1400 nM; in assay [3], 52 nM; in assay [4], 20 nM; in assay [5] it was 250 nM.

Turning to `C[C@@]12OC(=O)[C@]1([C@@H](O)[C@H]1CCC[C@H](Cl)[C@H]1O)NC(=O)[C@@H]2CCCl`, the IC50 was more than 20000 nM in assay [1]; more than 20000 nM in assay [2]; more than 20000 nM in assay [3]; 8200 nM in assay [4]; more than 20000 nM in assay [5].

With `C[C@@]12OC(=O)[C@]1(C(=O)[C@@H]1C=CCCC1)NC(=O)[C@@H]2CCCl`, the IC50 in assay [1] was more than 20000 nM; in assay [2] it was more than 20000 nM; in assay [3], more than 20000 nM; in assay [4], 8200 nM; in assay [5], 10000 nM.

As to `C[C@@]12OC(=O)[C@]1([C@@H](O)[C@H]1CCC[C@H]3O[C@@H]13)NC(=O)[C@@H]2CCCl`, the half-maximal inhibitory concentration (IC50) in assay [1] worked out at 34 nM; in assay [2], 570 nM; in assay [3], 32 nM; in assay [4], 6.3 nM; in assay [5], 92 nM.

With `C[C@@]12OC(=O)[C@]1(C(O)[C@@H]1C=CCCC1)NC(=O)[C@@H]2CCCl` (some centres not stated), the IC50 in assay [1], in assay [2], in assay [3], in assay [4] and in assay [5] was more than 20000 nM throughout.

As to `C[C@H]1C(=O)N[C@@]2([C@@H](O)[C@@H]3C=CCCC3)C(=O)O[C@@]12C`, the IC50 stood at 850 nM in assay [1]; 1200 nM in assay [2]; 8500 nM in assay [3]; 7.7 nM in assay [4]; 340 nM in assay [5].

Consider `C[C@@]12OC(=O)[C@]1([C@@H](O)[C@@H]1C=CCCC1)NC(=O)C2CCCl` (single isomer, unassigned), for which the IC50 in assay [1] is 3800 nM; in assay [2] it was more than 20000 nM; in assay [3], 1900 nM; in assay [4], 330 nM; in assay [5], 2500 nM.

For the compound `C[C@@]12OC(=O)[C@]1(C(O)[C@H]1CCC[C@@H]3OC13)NC(=O)[C@@H]2CCCl` (single isomer, unassigned), the IC50 in assay [1] was determined as 300 nM; in assay [2], 3200 nM; in assay [3], 320 nM; in assay [4] it was 91 nM; in assay [5] it was 770 nM.

On to `C[C@@]12OC(=O)C1([C@@H](O)[C@@H]1C=CCCC1)NC(=O)[C@@H]2CCO` (single isomer, unassigned) [hydroxysalinosporamide A], for which the IC50 in assay [1] is 2600 nM; in assay [2], 2500 nM; in assay [3] it was more than 20000 nM; in assay [4], 8 nM; in assay [5] it was 800 nM.

As for `C[C@@]12OC(=O)[C@]1([C@@H](O)[C@@H]1C=CCCC1)NC(=O)[C@@H]2CCBr` [BROMOSALINOSPORAMIDE], the IC50 in assay [1] was determined as 14 nM; in assay [2], 290 nM; in assay [3], 7.4 nM; in assay [4], 2.6 nM; in assay [5] it was 14 nM.

Regarding `C[C@@]12OC(=O)[C@]1([C@@H](O)[C@@H]1C=CCCC1)NC(=O)[C@@H]2CCI` [IODOSALINOSPORAMIDE], the IC50 in assay [1] amounted to 10 nM; in assay [2], 410 nM; in assay [3], 6.8 nM; in assay [4] it was 2.8 nM; in assay [5], 13 nM.

`C[C@@]12OC(=O)[C@]1([C@@H](O)[C@@H]1C=CCCC1)NC(=O)[C@@H]2CCCl` [MARIZOMIB]: the IC50 in assay [1] is 11 nM; in assay [2] it was 430 nM; in assay [3], 8.2 nM; in assay [4], 2.6 nM.

For `CC(C)[C@H](O)[C@@]12NC(=O)[C@H](C)[C@@H]1OC2=O` [OMURALIDE], the IC50 in assay [1] was 1600 nM; in assay [2] it was more than 10000 nM; in assay [3] it was 3300 nM; in assay [4], 57 nM; in assay [5] it was 540 nM.

For the compound `CC[C@H]1C(=O)N[C@@]2([C@@H](O)[C@@H]3C=CCCC3)C(=O)O[C@@]12C` [SALINOSPORAMIDE B], the IC50 in assay [1] is 1600 nM; in assay [4], 27 nM; in assay [5], 640 nM.
